Consider seven compounds from the kinase profiling compilation of Christmann-Franck et al. (2016).

What all share (experiment): radiometric filter-binding kinase assay
One assay has as its target PDPK1 (human) (UniProt O15530). The conditions noted are these: compound 1.0 µM.
The next assay deals with PHKG1 or PHKG2 (human) (UniProt P15735+Q16816). The note with it: compound 1.0 µM; ATP 50 µM.
Assay [1] deals with CSNK2A1 or CSNK2A2 (human) (UniProt P19784+P68400). The note with it: compound 1.0 µM; ATP 5 µM.
The target of a further assay is PRKCG (human) (UniProt P05129). The conditions noted are these: compound 1.0 µM; ATP 5 µM.
A further assay deals with PAK7 (human) (UniProt Q9P286). The note with it: compound 1.0 µM; ATP 20 µM.
The target of the next assay is MAPK11 (human) (UniProt Q15759). The note with it: compound 1.0 µM; ATP 20 µM.
The next assay deals with PKN2 (human) (UniProt Q16513). The conditions noted are these: compound 10.0 µM; ATP 5 µM.
Assay [2] concerns AKT1 (human), P31749 [S473D]. The note with it: compound 10.0 µM; ATP 5 µM.
The target in a further assay is SRC (chicken). The note with it: ATP 50 µM, accession and sequence are those of the human protein.
For a further assay, the target named is MAPK9 (human) (UniProt P45984). The note with it: compound 25.0 µM; ATP 20 µM.
The target of the next assay is CSNK1D (human) (UniProt P48730). The note with it: compound 1.0 µM; ATP 20 µM.
The target of the next assay is MAPK14 (human) (UniProt Q16539). The note with it: compound 10.0 µM; ATP 50 µM.
Chain of MAPK14 (human) (Q16539 whole entry, looked up): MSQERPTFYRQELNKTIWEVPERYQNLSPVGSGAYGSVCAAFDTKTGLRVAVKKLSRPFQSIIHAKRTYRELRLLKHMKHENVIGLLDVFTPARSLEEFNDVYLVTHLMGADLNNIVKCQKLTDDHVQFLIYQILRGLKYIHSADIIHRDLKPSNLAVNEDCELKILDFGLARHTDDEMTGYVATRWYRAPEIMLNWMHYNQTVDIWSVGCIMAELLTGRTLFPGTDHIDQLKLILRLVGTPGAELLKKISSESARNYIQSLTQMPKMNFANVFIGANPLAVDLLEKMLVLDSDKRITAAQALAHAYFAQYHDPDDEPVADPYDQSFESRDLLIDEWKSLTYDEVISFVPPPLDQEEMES

Chain of PDPK1 (human) (O15530 whole entry, looked up): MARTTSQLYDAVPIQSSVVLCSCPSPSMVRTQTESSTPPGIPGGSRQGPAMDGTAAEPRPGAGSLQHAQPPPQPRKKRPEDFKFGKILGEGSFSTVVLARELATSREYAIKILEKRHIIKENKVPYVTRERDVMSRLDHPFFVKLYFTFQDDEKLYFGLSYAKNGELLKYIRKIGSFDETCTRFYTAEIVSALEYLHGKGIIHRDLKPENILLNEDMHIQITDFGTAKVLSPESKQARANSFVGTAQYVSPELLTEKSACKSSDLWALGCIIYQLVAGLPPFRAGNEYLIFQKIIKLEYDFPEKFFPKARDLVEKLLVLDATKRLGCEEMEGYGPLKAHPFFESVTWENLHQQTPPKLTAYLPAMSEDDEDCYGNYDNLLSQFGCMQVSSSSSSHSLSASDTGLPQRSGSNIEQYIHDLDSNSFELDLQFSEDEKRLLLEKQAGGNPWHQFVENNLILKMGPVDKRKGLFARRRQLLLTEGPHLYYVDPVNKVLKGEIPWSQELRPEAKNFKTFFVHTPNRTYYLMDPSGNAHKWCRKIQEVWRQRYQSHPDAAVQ
Chain of PAK7 (human) (Q9P286 whole entry, looked up): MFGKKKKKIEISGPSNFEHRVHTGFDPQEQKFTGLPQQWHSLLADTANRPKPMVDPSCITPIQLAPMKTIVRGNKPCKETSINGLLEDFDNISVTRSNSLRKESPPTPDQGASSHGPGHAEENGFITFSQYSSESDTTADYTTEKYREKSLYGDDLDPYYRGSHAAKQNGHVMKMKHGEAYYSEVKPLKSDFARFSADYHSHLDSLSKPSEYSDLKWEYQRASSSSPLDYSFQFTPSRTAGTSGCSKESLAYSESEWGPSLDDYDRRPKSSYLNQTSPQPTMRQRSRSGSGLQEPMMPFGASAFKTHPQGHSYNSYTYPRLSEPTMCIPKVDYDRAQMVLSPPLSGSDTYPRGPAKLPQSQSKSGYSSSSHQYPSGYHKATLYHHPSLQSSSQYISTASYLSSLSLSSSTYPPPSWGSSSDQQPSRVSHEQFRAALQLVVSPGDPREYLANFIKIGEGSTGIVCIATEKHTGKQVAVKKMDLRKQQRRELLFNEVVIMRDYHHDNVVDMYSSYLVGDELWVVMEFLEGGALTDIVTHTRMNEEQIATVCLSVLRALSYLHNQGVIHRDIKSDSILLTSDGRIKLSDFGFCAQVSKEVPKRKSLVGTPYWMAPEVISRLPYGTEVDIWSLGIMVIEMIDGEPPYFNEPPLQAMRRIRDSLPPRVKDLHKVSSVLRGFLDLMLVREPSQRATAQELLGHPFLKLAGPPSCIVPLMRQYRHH
Chain of MAPK11 (human) (Q15759 whole entry, looked up): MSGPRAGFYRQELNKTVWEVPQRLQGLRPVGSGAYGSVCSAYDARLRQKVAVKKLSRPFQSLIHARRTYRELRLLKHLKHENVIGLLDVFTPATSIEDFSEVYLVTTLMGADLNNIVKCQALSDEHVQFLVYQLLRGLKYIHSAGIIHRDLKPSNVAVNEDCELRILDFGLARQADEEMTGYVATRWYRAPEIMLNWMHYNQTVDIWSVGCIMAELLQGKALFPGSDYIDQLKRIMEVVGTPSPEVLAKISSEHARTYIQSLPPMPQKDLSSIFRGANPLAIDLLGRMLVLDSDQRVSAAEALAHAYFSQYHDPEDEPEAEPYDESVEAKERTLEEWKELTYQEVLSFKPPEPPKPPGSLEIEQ
Chain of AKT1 (human), P31749 [S473D] (P31749 whole entry S473D, looked up): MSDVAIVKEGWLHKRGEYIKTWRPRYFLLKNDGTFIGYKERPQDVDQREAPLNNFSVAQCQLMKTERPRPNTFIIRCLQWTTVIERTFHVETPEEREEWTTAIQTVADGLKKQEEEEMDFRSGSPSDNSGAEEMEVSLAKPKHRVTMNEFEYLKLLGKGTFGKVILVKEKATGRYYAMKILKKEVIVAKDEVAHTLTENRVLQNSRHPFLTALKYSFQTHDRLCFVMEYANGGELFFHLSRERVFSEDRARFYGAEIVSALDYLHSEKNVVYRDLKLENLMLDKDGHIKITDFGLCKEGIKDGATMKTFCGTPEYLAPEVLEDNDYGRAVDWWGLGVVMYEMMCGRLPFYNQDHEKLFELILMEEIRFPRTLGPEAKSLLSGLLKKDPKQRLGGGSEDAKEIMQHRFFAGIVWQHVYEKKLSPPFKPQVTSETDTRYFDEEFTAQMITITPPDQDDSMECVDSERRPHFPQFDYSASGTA
Chain of PKN2 (human) (Q16513 whole entry, looked up): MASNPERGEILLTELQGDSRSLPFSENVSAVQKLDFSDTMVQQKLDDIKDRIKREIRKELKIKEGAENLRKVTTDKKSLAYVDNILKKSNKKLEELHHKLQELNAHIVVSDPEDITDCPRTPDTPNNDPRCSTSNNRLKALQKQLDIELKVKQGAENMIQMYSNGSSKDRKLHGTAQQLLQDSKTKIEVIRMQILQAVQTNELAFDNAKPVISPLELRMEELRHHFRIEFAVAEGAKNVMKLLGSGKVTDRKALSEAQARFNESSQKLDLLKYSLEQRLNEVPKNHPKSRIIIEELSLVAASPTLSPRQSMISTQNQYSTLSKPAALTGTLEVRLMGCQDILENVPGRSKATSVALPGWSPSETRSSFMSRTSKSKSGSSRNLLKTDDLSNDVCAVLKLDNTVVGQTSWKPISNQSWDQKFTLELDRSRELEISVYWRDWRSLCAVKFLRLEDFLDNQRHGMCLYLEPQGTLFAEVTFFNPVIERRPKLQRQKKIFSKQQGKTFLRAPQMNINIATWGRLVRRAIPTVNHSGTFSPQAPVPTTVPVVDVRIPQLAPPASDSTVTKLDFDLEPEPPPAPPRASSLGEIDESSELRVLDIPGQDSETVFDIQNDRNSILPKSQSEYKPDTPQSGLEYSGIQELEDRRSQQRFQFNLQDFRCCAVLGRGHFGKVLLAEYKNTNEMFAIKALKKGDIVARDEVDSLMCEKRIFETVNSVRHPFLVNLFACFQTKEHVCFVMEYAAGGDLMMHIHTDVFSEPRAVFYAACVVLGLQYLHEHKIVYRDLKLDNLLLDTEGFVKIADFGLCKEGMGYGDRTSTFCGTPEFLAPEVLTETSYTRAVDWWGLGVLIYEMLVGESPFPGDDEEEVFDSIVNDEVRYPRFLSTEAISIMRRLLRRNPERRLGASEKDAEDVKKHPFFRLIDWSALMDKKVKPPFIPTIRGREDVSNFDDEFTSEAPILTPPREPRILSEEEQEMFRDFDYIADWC
Chain of MAPK9 (human) (P45984 whole entry, looked up): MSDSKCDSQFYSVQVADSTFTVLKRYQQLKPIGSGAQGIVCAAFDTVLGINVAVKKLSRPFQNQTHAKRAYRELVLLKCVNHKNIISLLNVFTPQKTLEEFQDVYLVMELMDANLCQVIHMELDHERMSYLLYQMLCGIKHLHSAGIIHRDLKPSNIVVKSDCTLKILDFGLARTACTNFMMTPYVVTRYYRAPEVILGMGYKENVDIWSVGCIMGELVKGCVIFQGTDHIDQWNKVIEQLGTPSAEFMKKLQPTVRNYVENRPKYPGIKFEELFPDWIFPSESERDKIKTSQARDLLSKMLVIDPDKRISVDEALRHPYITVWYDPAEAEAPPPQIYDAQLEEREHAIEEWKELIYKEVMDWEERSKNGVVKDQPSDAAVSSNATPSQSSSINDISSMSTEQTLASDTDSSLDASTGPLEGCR
Chain of CSNK1D (human) (P48730 whole entry, looked up): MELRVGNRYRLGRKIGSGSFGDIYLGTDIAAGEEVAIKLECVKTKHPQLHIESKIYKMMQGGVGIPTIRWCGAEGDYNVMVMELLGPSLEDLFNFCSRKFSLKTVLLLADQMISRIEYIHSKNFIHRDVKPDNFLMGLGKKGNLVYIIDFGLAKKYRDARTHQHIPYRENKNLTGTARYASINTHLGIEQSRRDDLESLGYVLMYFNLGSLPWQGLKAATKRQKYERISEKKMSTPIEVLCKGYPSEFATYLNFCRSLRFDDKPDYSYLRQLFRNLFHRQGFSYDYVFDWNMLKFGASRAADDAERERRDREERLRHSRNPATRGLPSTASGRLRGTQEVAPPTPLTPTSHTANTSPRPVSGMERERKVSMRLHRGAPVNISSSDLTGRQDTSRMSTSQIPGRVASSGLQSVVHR

Regarding `CC[C@@H](CO)Nc1nc(NCc2ccccc2)c2ncn(C(C)C)c2n1`, the residual activity (usually the signal under treatment as a percentage of the control signal) came to 80% at PDPK1 (human) (ATP 20 µM); 90% at PDPK1 (human) (ATP 50 µM); 93% on PHKG1 or PHKG2 (human); 92% in [1]; 82% at PRKCG (human); 74% on PAK7 (human). Also, the residual activity on MAPK11 (human) is 94%.

Regarding `NC(=O)c1ccc(-c2nc(-c3ccccn3)c(-c3ccc4c(c3)OCCO4)[nH]2)cc1`, the residual activity (on PKN2 (human); in assay [2]) was 107% each time.

Consider `CN(C)S(=O)(=O)c1ccc2c(c1)/C(=C/c1cc3c([nH]1)CCCC3)C(=O)N2`, for which, on SRC (chicken), the half-maximal inhibitory concentration (IC50) (usually the midpoint of a concentration-inhibition curve) came to 100 nM.

On to `COc1cc(OC)c(/C=C2\C(=O)Nc3ccccc32)c(OC)c1`, for which, at MAPK9 (human), the residual activity stood at 101%.

For the compound `CC(C)(C)n1nc(-c2cccc3ccccc23)c2c(N)ncnc21`, the residual activity in the assay with SRC (chicken) (compound 1.0 µM) is 20%.

`COc1ccc2c(c1)[nH]c1c(C)nccc12`: on CSNK1D (human), the residual activity is 60%.

Turning to `Cc1ccc(NC(=O)c2cccc(N(C)C)c2)cc1NC(=O)c1ccc(O)cc1`, the residual activity on MAPK14 (human) turned out to be 8%.
